Reference: PMC6905855, “Agonist-specific voltage-dependent gating of lysosomal two-pore Na^+ channels” (eLife, 2019)
Where “and” joins values, the source holds several entries; their conditions need not be identical. Equal entries are not always repeated.

Legend:
[1] = target: T1, surface-expressing mutant TPC2 channel (TPC2^LL/AA) in HEK293 cells (Homo sapiens, UniProt Q8NHX9, L11A/L12A); assay: Whole-cell recordings of ITPC2-LL/AA; assay type: cell-based
T1 construct: expressed in transfected cells; host or cells: HEK293
T1 sequence (Q8NHX9 whole entry L11A/L12A): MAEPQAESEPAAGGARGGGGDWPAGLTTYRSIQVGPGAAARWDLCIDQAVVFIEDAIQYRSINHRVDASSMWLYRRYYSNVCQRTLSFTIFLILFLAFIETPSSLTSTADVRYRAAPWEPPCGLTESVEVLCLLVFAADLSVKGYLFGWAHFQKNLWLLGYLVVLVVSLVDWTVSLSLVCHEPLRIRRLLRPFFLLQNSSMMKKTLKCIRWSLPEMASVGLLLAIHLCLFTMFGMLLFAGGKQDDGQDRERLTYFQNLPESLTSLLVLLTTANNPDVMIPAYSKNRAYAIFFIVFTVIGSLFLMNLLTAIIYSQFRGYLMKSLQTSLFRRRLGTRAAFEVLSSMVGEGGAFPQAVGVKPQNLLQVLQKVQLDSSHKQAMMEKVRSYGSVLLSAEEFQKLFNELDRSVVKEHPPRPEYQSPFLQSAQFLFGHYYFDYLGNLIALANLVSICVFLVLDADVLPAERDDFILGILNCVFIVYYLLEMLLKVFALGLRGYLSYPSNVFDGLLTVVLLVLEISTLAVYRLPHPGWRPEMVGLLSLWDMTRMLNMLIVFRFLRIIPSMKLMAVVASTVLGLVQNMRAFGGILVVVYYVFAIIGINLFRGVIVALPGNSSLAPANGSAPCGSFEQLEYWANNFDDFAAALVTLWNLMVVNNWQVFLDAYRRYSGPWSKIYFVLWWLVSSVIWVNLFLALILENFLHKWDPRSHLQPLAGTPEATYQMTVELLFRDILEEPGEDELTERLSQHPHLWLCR
Source text: We therefore characterized the responses of TPC2 channels to TCAs in detail using electrophysiological methods. We first performed whole-cell recordings in HEK293 cells that were transfected with surface-expressed TPC2 mutant channels (TPC2-L^11L^12-AA; abbreviated as TPC2^LL/AA hereafter).
(§1) All TPC1 and TPC2 mutants were generated with a site-directed mutagenesis kit (Qiagen) using EGFP- human TPC1 and TPC2 as the templates. All constructs were confirmed by DNA sequencing.
Cells were transfected with Lipofectamine 2000 (Invitrogen). After culture media were refreshed 18–24 hr post-transfection, cells were used for the electrophysiological assays 24–36 hr post-transfection.
All bath solutions were applied via a perfusion system that allowed complete solution exchange within a few seconds. […] Whole-cell currents were digitized at 10 kHz and filtered at 2 kHz.

[2] = test system: endogenous TPCs in WT HAP1 cells; assay: Whole-endolysosome recordings of endogenous ITPC in WT HAP1 cells; assay type: biochemical, human; conditions: for whole-endolysome ITPC current: wt HAP1, LyNa-VA1.1 (50 µM) co-applied with PI(3,5)P2 (0.3 µM)
hTPC2 = target: T2, hTPC2 (Homo sapiens, UniProt Q8NHX9); assay: Whole-endolysosome recordings of ITPC2; assay type: biochemical; conditions: for Normalized I-TPC2: WT TPC2
T2 construct: expressed in transfected cells; host or cells: Cos1 and HEK293
T2 sequence (Q8NHX9 whole entry): as the sequence (Q8NHX9 whole entry L11A/L12A) above, with A11L, A12L counted along it

hTPC1 = target: T3, hTPC1 (Homo sapiens, UniProt Q9ULQ1); assay: Whole-endolysosome recordings of ITPC1; assay type: biochemical
T3 construct: expressed in transfected cells; host or cells: Cos1
Description: It was therefore of interest to explore whether TCAs/LyNa-VAs could also act on TPC1. To investigate this, we used two different voltage paradigms. […] Second, we used a tail current paradigm to measure the amplitude of the peak inward current at −120 mV following prolonged steps to various potentials (Figure 4E).
Figure 4. […] HP = 0 mV. […] Dotted lines in A indicate where the currents were measured. […] Data are presented as Mean ± S.E.M (n = 3 patches). […] (G) Normalized I-V plots of basal voltage-dependent currents in WT TPC1- and TPC1^R540I-transfected cells. […] Figure 4—source data 1. […] Figure 4—figure supplement 1. […] (A) A voltage protocol that elicited ITPC1 tail currents as shown in Figure 4E (from −140 to 100 mV with a ∆V = 20 mV, 1 s with a 10 s inter-step interval). Arrows indicate where tail currents were measured. (B) A voltage protocol that elicited ITPC1 tail currents as shown in C. […] HP = 0 mV. […] (A) Basal whole-endolysosome ITPC1 (left) or ITPC1-R540I (right) was elicited by voltage steps (−140 to +100 mV with ΔV = 20 mV) in the absence of PI(3,5)P2 in TPC1-transfected Cos1 cells ([She et al., 2019]). Tail currents were elicited at −120 mV. (B) The effects of PI(3,5)P2 (0.3 µM) on ITPC1 (left) and ITPC1-R540I (right) step currents. […] A preconditioning voltage (+80 mV, 0.1 s) was applied before voltage steps starting from −140 to 100 mV (0.5 s, ∆V = 20 mV).
as §1
Whole-endolysosome recordings were performed on manually isolated enlarged endolysosomes ([Wang et al., 2012]). In brief, a patch pipette was pressed against a cell and quickly pulled away to slice the cell membrane. Enlarged endolysosomes were released into a dish and identified by monitoring EGFP-TPC1/2 or the mCherry-TPC1/2 fluorescence. After formation of a gigaseal between the patch pipette and the enlarged endolysosome, capacitance transients were compensated. Voltage steps of several hundred mVs with millisecond duration were then applied to break into the vacuolar membrane. The whole-endolysosome configuration was verified by the re-appearance of capacitance transients after break-in.
Data were collected using an Axopatch 200A patch clamp amplifier, Digidata 1440, and pClamp 10.2 software (Axon Instruments). Whole-endolysosome currents were digitized at 10 kHz and filtered at 2 kHz. All experiments were conducted at room temperature (21–23°C), and all recordings were analyzed with pClamp 10.2, and Origin 8.0 (OriginLab, Northampton, MA). The permeability to cations (relative to PNa) was estimated based on following equations ([Lewis, 1979]) and Erev measurement under bi-ionic conditions:(1) PX/PNa=γNa/γX{[Na^+]Luminal/[X^+]Cytoplasmic}{exp([…])} (2) PCa/PNa=γNa/γCa{[Na^+]Cytoplasmic/[4[Ca^2+]Luminal}{exp(ErevF/RT)}{1+exp(ErevF/RT)} where R, T, F, Erev, and γ are, respectively, the gas constant, absolute temperature, Faraday constant, reversal potential, and activity coefficient. The liquid junction potentials were measured and corrected as described ([Neher, 1992]).

## CN(C)CCCN1c2ccccc2CCc2ccc(Cl)cc21 [LyNa-VA1.1, Clomipramine]
[1]
  activation of whole-cell ITPC2-LL/AA (in words): activated
  current, whole-cell ITPC2-LL/AA: 1835.6 pA and 1904.2 pA and 1632.7 pA and 1290 pA and 1968.1 pA
[1]; whole-cell recordings at −140 mV, TPC2^LL/AA-transfected HEK293 cells, read-out: EC50
  EC50: 43 ± 2 µM
[2]
  activation of whole-endolysosome ITPC in WT HAP1 cells (in words): activated whole-endolysome ITPC in WT
[2]; individual
  whole-endolysome ITPC current: 252.1 pA and 207.1 pA and 321.7 pA and 271.3 pA
[2]; mean
  whole-endolysome ITPC current: 263.05 pA
hTPC2; PI(3,5)P2 50 nM
  combined effect with PI(3,5)P2 on whole-endolysosome ITPC2 (in words): synergistic effects
hTPC2; WT +PI(3,5)P2 (50 nM), whole-endolysosome, Figure 3C
  EC50: 12 ± 7 µM
hTPC2; WT -PI(3,5)P2, whole-endolysosome, Figure 3C
  EC50: 48 ± 16 µM
hTPC2; 1 µM + PI(3,5)P2 50nM, individual patches
  Normalized I-TPC2: 0.3375 and 0.1568 and 0.08956
hTPC2; 1 µM + PI(3,5)P2 50nM, mean
  Normalized I-TPC2: 0.1946
hTPC2; 3 µM + PI(3,5)P2 50nM, individual patches
  Normalized I-TPC2: 0.35 and 0.3063 and 0.1
hTPC2; 3 µM + PI(3,5)P2 50nM, mean
  Normalized I-TPC2: 0.2521
hTPC2; 10 µM + PI(3,5)P2 50nM, individual patches
  Normalized I-TPC2: 0.5558 and 0.7252 and 0.2889
hTPC2; 10 µM + PI(3,5)P2 50nM, mean
  Normalized I-TPC2: 0.5233
hTPC2; 10 µM, no PI(3,5)P2, individual patches
  Normalized I-TPC2: 0.08625 and 0.1427 and 0.1845
hTPC2; 10 µM, no PI(3,5)P2, mean
  Normalized I-TPC2: 0.1378
hTPC2; 20 µM, no PI(3,5)P2, individual patches
  Normalized I-TPC2: 0.2419 and 0.1804 and 0.1168
hTPC2; 20 µM, no PI(3,5)P2, mean
  Normalized I-TPC2: 0.1797
hTPC2; 30 µM + PI(3,5)P2 50nM, individual patches
  Normalized I-TPC2: 1 (2×) and 0.3222
hTPC2; 30 µM + PI(3,5)P2 50nM, mean
  Normalized I-TPC2: 0.7741
hTPC2; 50 µM, no PI(3,5)P2, individual patches
  Normalized I-TPC2: 0.8473 and 0.4535 and 0.5893
hTPC2; 50 µM, no PI(3,5)P2, mean
  Normalized I-TPC2: 0.63
hTPC2; 100 µM + PI(3,5)P2 50nM, individual patches
  Normalized I-TPC2: 0.7417 and 0.7423 and 1
hTPC2; 100 µM + PI(3,5)P2 50nM, mean
  Normalized I-TPC2: 0.828
hTPC2; 100 µM, no PI(3,5)P2, individual patches
  Normalized I-TPC2: 1 (2×) and 0.99
hTPC2; 100 µM, no PI(3,5)P2, mean
  Normalized I-TPC2: 0.9967
hTPC2; 200 µM, no PI(3,5)P2, individual patches
  Normalized I-TPC2: 0.7106 and 0.507 and 0.6545
hTPC2; 200 µM, no PI(3,5)P2, mean
  Normalized I-TPC2: 0.624
hTPC2; WT+pip2 (50 nM), MEAN (Fig. 3D)
  EC50: 14.6 µM
hTPC2; WT+pip2 (50 nM), individual patches (Fig. 3D)
  EC50: 27 µM and 12.6 µM and 4.3 µM
hTPC2; WT-pip2, MEAN (Fig. 3D)
  EC50: 45.1 µM
hTPC2; WT-pip2, individual patches (Fig. 3D)
  EC50: 56 µM and 48.4 µM and 30.8 µM
hTPC2; whole endolysosome recordings with 100 µM of LyNa-VAs at −120 mV
  ITPC2: 945 ± 111 pA
hTPC1
  effect on whole-endolysosome ITPC1 (in words): profound suppression of outward currents at potentials positive to Erev (~0 mV), and a substantial enhancement of inward currents negative to Erev
hTPC1; 3 µM, individual patches
  Dose-dependent activation of TPC1 (normalized ITPC1): 0.0359 and 0.105 and 0
hTPC1; 3 µM, mean
  Dose-dependent activation of TPC1 (normalized ITPC1): 0.04696
hTPC1; 10 µM, individual patches
  Dose-dependent activation of TPC1 (normalized ITPC1): 0.1722 and 0.1955 and 0.1208
hTPC1; 10 µM, mean
  Dose-dependent activation of TPC1 (normalized ITPC1): 0.1629
hTPC1; 30 µM, individual patches
  Dose-dependent activation of TPC1 (normalized ITPC1): 0.6041 and 0.3178 and 0.3982
hTPC1; 30 µM, mean
  Dose-dependent activation of TPC1 (normalized ITPC1): 0.44
hTPC1; 100 µM, individual patches
  Dose-dependent activation of TPC1 (normalized ITPC1): 1 and 0.7031 and 0.8638
hTPC1; 100 µM, mean
  Dose-dependent activation of TPC1 (normalized ITPC1): 0.8556
hTPC1; 300 µM, individual patches
  Dose-dependent activation of TPC1 (normalized ITPC1): 0.8072 and 1 (2×)
hTPC1; 300 µM, mean
  Dose-dependent activation of TPC1 (normalized ITPC1): 0.9357
hTPC1; hTPC1, LyNa-VA1.1 (100 µM), Figure 4A
  τ of ITPC1 step currents: 155 ± 1 ms
hTPC1; hTPC1, LyNa-VA1.1 (100 µM), Figure 4F
  V1/2 of ITPC1 G-V curve: -30 ± 5 mV
hTPC1; hTPC1, tail currents at −120 mV, LyNa-VA1.1 (100 µM), Figure 4E
  τ of ITPC1 tail currents: 203 ± 2 ms
hTPC1; whole-endolysosome, n = 3 patches, read-out: EC50, activation of TPC1
  EC50: 27 ± 2 µM
